Assay results taken from US12427160B2, “Use of cannabinoids in the treatment of epilepsy” (Jazz Pharmaceuticals Research UK Limited, priority 2014, dated 2025).

Key:
[1] = in vivo; cited from earlier work
seizures [2] = conditions: 200 mg/day of pure CBD, four adult patients; cited from earlier work
seizures [3] = conditions: 200 mg/day of pure CBD, open label, twelve institutionalized adult patients; cited from earlier work
seizures in mice = conditions: after pro-convulsant drugs or an electric current; cited from earlier work
[4] = Solubility of the drug substance in water; assay type: physicochemical
Text: Sesame oil was selected as an excipient to solubilize the drug substance.

[5] = tested on: children and young adults with severe, childhood onset treatment-resistant epilepsy (TRE); test: Expanded access compassionate use program: 50% responders after 12 weeks of CBD added to baseline AED; assay type: in vivo, human; conditions: 12 weeks of treatment
generalized epilepsy = conditions: eight adult patients with generalized epilepsy; cited from earlier work
Lennox-Gastaut syndrome = conditions: CBD in an oily solution, a child with Lennox-Gastaut syndrome; cited from earlier work

Row | SMILES | pro-convulsant effect [1] | seizure freedom / seizure frequency (seizures [2]) | control of seizures (seizures [3]) | prevention of seizures (seizures in mice) | solubility in water [4] | <50% reduction in seizures, proportion of patients, absence seizures ([5]; absence seizures (n = 28)) [%] | >50% reduction in seizures, proportion of patients, absence seizures ([5]; absence seizures (n = 28)) [%] | <50% reduction in seizures, proportion of patients, clonic seizures ([5]; clonic seizures (n = 8)) [%] | >50% reduction in seizures, proportion of patients, clonic seizures ([5]; clonic seizures (n = 8)) [%] | <50% reduction in seizures, proportion of patients, myoclonic seizures ([5]; myoclonic seizures (n = 30)) [%] | >50% reduction in seizures, proportion of patients, myoclonic seizures ([5]; myoclonic seizures (n = 30)) [%] | <50% reduction in seizures, proportion of patients, tonic seizures ([5]; tonic seizures (n = 45)) [%] | >50% reduction in seizures, proportion of patients, tonic seizures ([5]; tonic seizures (n = 45)) [%] | <50% reduction in seizures, proportion of patients, tonic-clonic seizures ([5]; tonic-clonic seizures (n = 65)) [%] | >50% reduction in seizures, proportion of patients, tonic-clonic seizures ([5]; tonic-clonic seizures (n = 65)) [%] | <50% reduction in seizures, proportion of patients, total seizures ([5]; total seizures (n = 137)) | reduction of seizures (generalized epilepsy) | seizure frequency (Lennox-Gastaut syndrome)
1 | CCCCCc1cc(O)c2c(c1)OC(C)(C)[C@@H]1CCC(C)=C[C@@H]21 [THC, Tetrahydrocannabinol] | pro-convulsant |  |  |  |  |  |  |  |  |  |  |  |  |  |  |  |  | 
2 | C=C(C)[C@@H]1CCC(C)=C[C@H]1c1c(O)cc(CCCCC)cc1O [CBD, Cannabidiol] |  | two of the four patients became seizure free | ineffective in controlling seizures | able to prevent seizures in mice | insoluble in water | 36 | 64 | 50 | 50 | 57 | 43 | 51 | 49 | 37 | 43 | 54% (n = 74) | marked reduction of seizures in 4 of the patients | improvement in seizure frequency
